Calls of active or inactive are those of the source. No cut-off for these calls is given here.
Experiments:
HepG2 [1] = test: Cytotoxicity against human HepG2 cells assessed as cell viability up to 50 uM measured upto 72 hrs by MTT assay; format: functional, cell-based; conditions: dose microM <=50, time hrs <=72
HCCLM3 [2] = test: Cytotoxicity against human HCCLM3 cells assessed as cell viability up to 50 uM measured upto 72 hrs by MTT assay; format: functional, cell-based; conditions: dose microM <=50, time hrs <=72
[3] = Cytotoxicity against human HCCLM3 cells assessed as reduction in cell viability measured upto 72 hrs by MTT assay; format: functional, cell-based; conditions: HCCLM3, 72 h
HepG2 [4] = test: Cytotoxicity against human HepG2 cells assessed as reduction in cell viability measured upto 72 hrs by MTT assay; format: functional, cell-based; conditions: HepG2, 72 h
L02 = test: Cytotoxicity against human L02 cells assessed as cell viability measured by MTT assay; format: cell-based
[5] = target: Signal transducer and activator of transcription 3 (Homo sapiens) (UniProt P40763); test: Inhibition of STAT3 in human HCCLM3 cell lysate assessed as suppression of STAT3-DNA interaction at 25 uM by ELISA; format: subcellular; conditions: time hrs <=12, TDE = time-dependent effect
[6] = Induction of cell cycle arrest in human HCCLM3 cells assessed as accumulation sub-G1 phase at 50 uM incubated for 48 hrs by propidium iodide staining based flow cytometry analysis relative to control; format: functional
HepG2 [7] = test: Antiinvasive activity in human HepG2 cells at 50 nM incubated for 8 hrs in presence of CXCL12 by crystal violet staining based assay; format: functional, cell-based
HCCLM3 [8] = test: Antimigratory activity against human HCCLM3 cells assessed as inhibition of cell migration at 50 uM; format: functional, cell-based
HepG2 [9] = test: Induction of cell cycle arrest in human HepG2 cells assessed as accumulation sub-G1 phase at 50 uM incubated for 48 hrs by propidium iodide staining based flow cytometry analysis relative to control; format: functional
[10] = Induction of cell cycle arrest in human HCCLM3 cells assessed as accumulation sub-G1 phase at 50 uM incubated for 24 hrs by propidium iodide staining based flow cytometry analysis relative to control; format: functional
HCCLM3 [11] = test: Antiinvasive activity in human HCCLM3 cells at 50 nM incubated for 8 hrs in presence of CXCL12 by crystal violet staining based assay; format: functional, cell-based
[12] = target: Signal transducer and activator of transcription 3 (Homo sapiens) (UniProt P40763); test: Inhibition of STAT3 activation in human HepG2 cells assessed as decrease in STAT3 phosphorylation at Y705 residue at 25 uM by Western blot analysis; format: cell-based; conditions: time hrs <=12, TDE = time-dependent effect
HCCLM3 [13] = test: Induction of apoptosis in human HCCLM3 cells assessed as decrease in Cyclin D1 expression at 25 uM by measured up to 48 hrs Western blot analysis; format: functional, cell-based; conditions: time hrs <=48
HepG2 [14] = test: Induction of cell cycle arrest in human HepG2 cells assessed as accumulation sub-G1 phase at 50 uM incubated for 24 hrs by propidium iodide staining based flow cytometry analysis relative to control; format: functional
HepG2 [15] = test: Induction of cell cycle arrest in human HepG2 cells assessed as accumulation sub-G1 phase at 50 uM incubated for 72 hrs by propidium iodide staining based flow cytometry analysis relative to control; format: functional
HCCLM3 [16] = test: Antimigratory activity against human HCCLM3 cells assessed as inhibition of cell migration at 50 uM in presence of CXCL12; format: functional, cell-based
[17] = target: T1, Signal transducer and activator of transcription 5A (Homo sapiens) (UniProt P42229); test: […] in human HCCLM3 cells assessed as decrease in STAT3 phosphorylation at Y694 residue at 25 uM by Western blot analysis; format: cell-based
T1 sequence (whole entry): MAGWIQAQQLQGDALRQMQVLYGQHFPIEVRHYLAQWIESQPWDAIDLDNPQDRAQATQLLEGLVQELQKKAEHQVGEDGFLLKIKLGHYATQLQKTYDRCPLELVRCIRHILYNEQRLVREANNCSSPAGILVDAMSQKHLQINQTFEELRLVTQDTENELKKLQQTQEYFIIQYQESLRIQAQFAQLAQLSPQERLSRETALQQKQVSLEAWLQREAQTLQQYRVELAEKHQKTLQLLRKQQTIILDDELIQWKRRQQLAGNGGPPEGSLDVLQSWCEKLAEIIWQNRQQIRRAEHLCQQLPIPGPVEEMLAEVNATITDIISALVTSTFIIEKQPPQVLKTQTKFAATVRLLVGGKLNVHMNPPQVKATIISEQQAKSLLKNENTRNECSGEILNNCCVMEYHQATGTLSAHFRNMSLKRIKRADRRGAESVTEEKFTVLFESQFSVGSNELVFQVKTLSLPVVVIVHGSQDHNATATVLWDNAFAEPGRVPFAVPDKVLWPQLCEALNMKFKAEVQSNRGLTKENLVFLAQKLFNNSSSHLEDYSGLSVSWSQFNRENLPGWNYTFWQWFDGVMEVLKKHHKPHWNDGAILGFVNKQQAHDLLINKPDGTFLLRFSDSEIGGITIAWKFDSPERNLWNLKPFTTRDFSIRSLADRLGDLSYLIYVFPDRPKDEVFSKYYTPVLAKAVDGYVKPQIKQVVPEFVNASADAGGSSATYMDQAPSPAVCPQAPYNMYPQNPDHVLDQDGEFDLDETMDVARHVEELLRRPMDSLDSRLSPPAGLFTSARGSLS

HCCLM3 [18] = test: Induction of apoptosis in human HCCLM3 cells assessed as increase in Cleaved caspase-3 expression at 25 uM by measured up to 48 hrs Western blot analysis; format: functional, cell-based; conditions: time hrs <=48
[19] = Induction of cell cycle arrest in human HCCLM3 cells assessed as accumulation sub-G1 phase at 50 uM incubated for 72 hrs by propidium iodide staining based flow cytometry analysis relative to control; format: functional
HepG2 [20] = test: Antimigratory activity against human HepG2 cells assessed as inhibition of cell migration at 50 uM; format: functional, cell-based
HepG2 [21] = test: Antimigratory activity against human HepG2 cells assessed as inhibition of cell migration at 50 uM in presence of CXCL12; format: functional, cell-based
HCCLM3 [22] = test: Induction of apoptosis in human HCCLM3 cells assessed as decrease in Survivin expression at 25 uM by measured up to 48 hrs Western blot analysis; format: functional, cell-based; conditions: time hrs <=48
[23] = target: T1, Signal transducer and activator of transcription 5A (Homo sapiens); test: […] in human HepG2 cells assessed as decrease in STAT3 phosphorylation at Y694 residue at 25 uM by Western blot analysis; format: cell-based
[24] = target: Signal transducer and activator of transcription 3 (Homo sapiens) (UniProt P40763); test: Inhibition of STAT3 in human HepG2 cell lysate assessed as suppression of STAT3-DNA interaction at 25 uM by ELISA; format: subcellular; conditions: time hrs <=12, TDE = time-dependent effect
[25] = target: Signal transducer and activator of transcription 3 (Homo sapiens) (UniProt P40763); test: Inhibition of STAT3 activation in human HCCLM3 cells assessed as decrease in STAT3 phosphorylation at Y705 residue at 25 uM by Western blot analysis; format: cell-based; conditions: time hrs <=12, TDE = time-dependent effect
HCCLM3 [26] = test: Induction of apoptosis in human HCCLM3 cells assessed as decrease in Bcl2 expression at 25 uM by measured up to 48 hrs Western blot analysis; format: functional, cell-based; conditions: time hrs <=48

Signal transducer and activator of transcription 3 (Homo sapiens), sequence (P40763 whole entry): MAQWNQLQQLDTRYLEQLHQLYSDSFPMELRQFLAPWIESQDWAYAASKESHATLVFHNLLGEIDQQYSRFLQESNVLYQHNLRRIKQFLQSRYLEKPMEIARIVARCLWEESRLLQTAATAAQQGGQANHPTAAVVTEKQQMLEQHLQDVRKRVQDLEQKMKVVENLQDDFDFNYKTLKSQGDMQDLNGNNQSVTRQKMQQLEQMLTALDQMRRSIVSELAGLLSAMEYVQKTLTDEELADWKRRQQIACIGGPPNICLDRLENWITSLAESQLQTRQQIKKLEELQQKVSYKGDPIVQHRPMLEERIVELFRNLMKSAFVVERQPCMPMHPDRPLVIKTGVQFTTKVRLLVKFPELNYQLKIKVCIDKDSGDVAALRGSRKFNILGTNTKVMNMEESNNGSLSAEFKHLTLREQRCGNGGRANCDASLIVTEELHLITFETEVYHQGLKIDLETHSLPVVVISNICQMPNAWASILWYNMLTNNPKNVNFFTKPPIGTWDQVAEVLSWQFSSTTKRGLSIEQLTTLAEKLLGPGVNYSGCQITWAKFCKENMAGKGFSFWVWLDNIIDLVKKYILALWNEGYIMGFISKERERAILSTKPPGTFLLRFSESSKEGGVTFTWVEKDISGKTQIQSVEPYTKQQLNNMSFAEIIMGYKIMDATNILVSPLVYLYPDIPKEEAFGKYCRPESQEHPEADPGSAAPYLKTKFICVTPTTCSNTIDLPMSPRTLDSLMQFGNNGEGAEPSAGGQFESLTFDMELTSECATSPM

C[C@H](NC(=O)/C(C#N)=C/c1cccc(Br)n1)c1ccccc1
Activity (HepG2 [1]): Dose-Dependent Effect | Activity (HCCLM3 [2]): Dose-Dependent Effect

CC(C)Oc1cccc(-c2cc(=O)n(C)c(=O)[nH]2)c1
IC50 [3]: 41.5 µM | IC50 (HepG2 [4]): 47.6 µM

Cn1c(=O)cc(-c2cccc3ccccc23)[nH]c1=O
Activity (L02): Toxic | inhibition [5]: Tde | Activity [6]: 46.5% | Activity (HepG2 [7]): Active | Activity (HCCLM3 [8]): Active | Activity (HepG2 [9]): 46.5% | Activity [10]: 39.3% | Activity (HCCLM3 [11]): Active | inhibition [12]: Tde | Activity (HCCLM3 [13]): Active | Activity (HepG2 [14]): 39.3% | IC50 [3]: 42.6 µM | IC50 (HepG2 [4]): 20.9 µM | Activity (HepG2 [15]): 67.3% | Activity (HCCLM3 [16]): Active | inhibition [17]: inactive | Activity (HCCLM3 [18]): Active | Activity (HepG2 [1]): Dose-Dependent Effect | Activity [19]: 67.3% | Activity (HepG2 [20]): Active | Activity (HepG2 [21]): Active | Activity (HCCLM3 [22]): Active | inhibition [23]: inactive | Activity (HCCLM3 [2]): Dose-Dependent Effect | inhibition [24]: Tde | inhibition [25]: Tde | Activity (HCCLM3 [26]): Active
